According to patent US20220048893A1, “Compounds for Treating Neurodegenerative Diseases and Cancers” (Hongyi & Associates LLC, priority 2019, published 2022):

Experiment: In vivo PK study, oral, plasma and brain
Parameters: species or system Sprague Dawley rats; AUC(0-t) / AUC(0-inf): concentration or dose not given beside the values
Details: for brain permeability compared to Nilotinib and Imatinib: in vivo PK studies; for Kp / AUC(0-inf) / AUC(0-t) / Cmax / Tmax / half-life: rat, oral, Sprague Dawley rats; for Kp: brain and plasma, read-out: AUC(0-t) Brain/ AUC(0-t) plasma
Protocol: In the PK profiling study, Compounds 1 and 2 were administered orally to three Sprague Dawley rats. The animals were fasted overnight before drug administration. The food supply were resumed 4 hrs post dose. Blood samples were collected at 8 time points after dose: 0.25 h, 0.5 h, 1 h, 2 h, 4 h, 6 h, 8 h and 24 h. There are three samples for each time point. Brain tissues were collected after 24 hour blood sample collection. Drug concentrations in blood and brain were analyzed by LC-MS/MS. The analytical results were confirmed using quality control samples for intra-assay variation. The accuracy of >66.7% of the quality control samples should be between 80-120% of the known values. Standard set of parameters including area under the curve (AUC(0-t) and AUC(0-∞)), elimination half-life (T1/2), maximum plasma concentration (Cmax), time to reach maximum plasma concentration (Tmax) were calculated using noncompartmental analysis modules in FDA certified pharmacokinetic program Phoenix WinNonlin 7.0 (Pharsight, USA). The ratio of brain to plasma concentration were calculated by the concentration in brain tissue versus the concentration in plasma.

brain permeability compared to Nilotinib and Imatinib | Kp | AUC(0-inf) (Brain) | AUC(0-t) (Brain) | Cmax (Brain) | Tmax (Brain) | half-life (Brain) | AUC(0-inf) (Plasma) | AUC(0-t) (Plasma) | Cmax (Plasma) | Tmax (Plasma) | half-life (Plasma) | Compound
much improved brain permeability | 0.121 | 8740 ng·h/mL | 7720 ng·h/mL | 557 ng/mL | 6 h | 7.1 h | 65400 ng·h/mL | 64000 ng·h/mL | 6680 ng/mL | 4 h | 3.98 h | Cc1ccc(C(=O)Nc2ccc(CC(C)N(C)C)cc2)cc1Nc1ccnc(-c2cccnc2)n1 (stereo not drawn) [Compound 1, N-(4-(2-(dimethylamino)propyl)phenyl)-4-methyl-3-((2-(pyridin-3-yl)pyrimidin-4-yl)amino)benzamide]
much improved brain permeability | 0.142 | 25600 ng·h/mL | 13100 ng·h/mL | 796 ng/mL | 6 h | 20.2 h | 219000 ng·h/mL | 92000 ng·h/mL | 5380 ng/mL | 6 h | 26.8 h | Cc1ccc(C(=O)Nc2ccc(C3CCN(C)CC3)cc2)cc1Nc1ccnc(-c2cccnc2)n1 [Compound 2, 4-methyl-N-(4-(1-methylpiperidin-4-yl)phenyl)-3-((2-(pyridin-3-yl)pyrimidin-4-yl)amino)benzamide]
